From US7056654B2, “Screening assay for inhibitors of human cytochrome P-450” (SmithKline Beecham Corporation, priority 1999, dated 2006) come the findings set out here.

The target in this series is T1, CYP2C8 (Homo sapiens, UniProt P10632).
T1 sequence (P10632 1-490): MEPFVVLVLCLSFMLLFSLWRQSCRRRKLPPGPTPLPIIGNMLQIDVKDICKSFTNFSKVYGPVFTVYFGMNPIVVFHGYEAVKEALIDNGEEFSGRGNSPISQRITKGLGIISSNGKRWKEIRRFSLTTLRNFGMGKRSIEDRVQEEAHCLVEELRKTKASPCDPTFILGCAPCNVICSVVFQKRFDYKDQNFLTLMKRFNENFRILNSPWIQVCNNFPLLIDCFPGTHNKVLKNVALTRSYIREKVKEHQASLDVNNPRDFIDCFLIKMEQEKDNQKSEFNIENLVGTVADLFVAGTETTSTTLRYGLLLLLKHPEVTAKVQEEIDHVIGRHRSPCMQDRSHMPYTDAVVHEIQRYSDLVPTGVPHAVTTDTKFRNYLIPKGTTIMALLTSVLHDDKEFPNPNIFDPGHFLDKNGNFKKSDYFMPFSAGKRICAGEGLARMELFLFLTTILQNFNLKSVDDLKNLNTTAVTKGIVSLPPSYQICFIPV
As to conditions: pH 7.4.

The structures appear in SMILES notation.

Experimental: Assay Methodology for CYP2C8
• 400 μM diethoxyfluorescein, (i.e. 0.155 mg/mL in acetonitrile)—store at approx. −20° C. in the dark • 2% (w/v) NaHCO3—store at approx. 4° C. • 50 mM potassium phosphate buffer, pH 7.4
Freshly prepared cofactor solution:—approx. the following per mL of 2% (w/v) NaHCO3 • 1.7 mg NADP, monosodium salt • 7.8 mg glucose-6-phosphate, monosodium salt • 6 Units glucose-6-phosphate dehydrogenase, Type VII from Bakers Yeast Method: • 1) Pre-warm the plate reader oven to 37° C. and pre-warm the lamp for at least 10 minutes. • 2) Mix 2.5 μL of 400 µM diethoxyfluorescein, 5 μL (50 μg) CYP2C8 microsomal protein and 212.5 μL buffer per incubate (giving 4 µM diethoxyfluorescein and 200 μg/mL protein final concentration). • 3) To each well of a 96-well plate add 220 µL of incubation mix and 5 μL of test compound solution (or 5 μL of appropriate solvent for control wells—methanol, DMSO or acetonitrile may be used). • 4) Pre-incubate the multi-well plate in the plate reader at 37° C. for 5 minutes. Pre-warm the cofactor solution at 37° C. for 5 minutes. • 5) Add 25 μL cofactor solution to each well and scan with an excitation wavelength of 485 nm and an emission wavelength of 530 nm with a gain of 80. Scan for 10 cycles at 1 minute intervals.

With `O=c1c(O)c(-c2ccc(O)c(O)c2)oc2cc(O)cc(O)c12` [quercitin], the IC50 was determined as 3 µM.

Usually IC50 stands for the concentration that gives 50% inhibition.
